Experimental data reported in publication PMC6713216, “Dual-target anti-Alzheimer’s disease agents with both iron ion chelating and monoamine oxidase-B inhibitory activity” (Journal of Enzyme Inhibition and Medicinal Chemistry, 2019).
Like-named read-outs stand apart in the source and are kept apart here. Marks after values point to notes of the source that are not given here.

Tests used:
[1] = parameters: method as in ref 17 = [17]; 17 Li Z-S , Qiao R-P , Yang Z-J , et al. One-step synthesis of novel tricyclic isomeric azidonucleosides . Tetrahedron Asymmetry 2006; 17 : 1056 – 61 .; settings: cited from earlier work
[2] = parameters: method as in ref 17 = [17]; 17 Li Z-S , Qiao R-P , Yang Z-J , et al.  . Tetrahedron Asymmetry 2006; 17 : 1056 – 61 .; settings: cited from earlier work
[3] = pKa determination by automatic spectrophotometric titration; format: physicochemical; settings: DMSO:KCl (0.1 M) = 2:3 (V/V), 25 °C
Description: (§1) The automatic titration system used in the test consisted of an automatic titrator, a luminescence 759 s UV-Vis spectrophotometer, and a pH Meter (Mettler Toledo InLab Expert PRO/Mettler Toledo InLab Science). All instruments are controlled by a computer program.
(§2) The testing solution (2:3 DMSO/KCl (0.1 M), V/V) was maintained at 25 °C using a TP-3A temperature controller. The cuvette is mounted on a spectrophotometer. The E0 and s of the pH Meter were calibrated by three standard solutions (pH = 6.86, 9.18, 4.00). KCl solution (0.1 M) was used to maintain the ionic strength. For the Fe(III) affinity evaluation, the ratio of compounds to iron ion was kept at 1.1:1 (n/n) when Logβ1 was measured; the ratio of compounds to iron ion was kept at 5:1 (n/n) when Logβ2 and Logβ3 were tested.
The titration was performed in a 50 mm path length cuvette. 45 ml KCl (0.1 M) solution, 40 μL of saturated EDTA solution were added to the cuvette. The pH value of the solution was acidified to 2.0 with hydrochloric acid (1.5 M). Then 20 μL of test compound DMSO solution (30 μM/L) was added and stirred vigorously. By adding KOH solution (0.1 M) from the automatic buret, the pH value of the solution was increased by 0.1. […] Adding KOH solution (0.1 M) and repeated the automatic process until the specified endpoint of pH value was reached. All data were recorded internally by the Visual Basic program, and the test results are analysed by the HypSpec2014 program.

[4] = Calculation of pFe3+ by HySS software from pKa and logβ values; format: physicochemical
Description: The values of pFe^3+ were calculated by HySS software according to the results of pKa1, pKa2, logβ1, logβ2, and logβ3 determined by the above methods. The basic parameters were set as follows: FeOH = –2.563, Fe(OH)2 = –6.205, Fe(OH)3 = –15.1, Fe2(OH)2 = –2.843, Fe3(OH)4 = –6.059, Fe(OH)4 = –21.883[23].

[5] = Determination of iron(III) affinity (Logβ1, Logβ2, Logβ3) by spectrophotometric titration; format: physicochemical; settings: DMSO:KCl (0.1 M) = 2:3 (V/V), 25 °C
Description: as §1, §2
A 45 ml KCl (0.1 M) solution was added to the cuvette (50 mm) and the pH value was acidified to 2.1. Then 30 μM DMSO solution of the testing compound and 60 μL acidic solution of FeCl3 (15 mM) were added separately, and the mixture was vigorously stirred. After the absorbance value is stabilised, a certain amount of HCl solution (4 M) was added by the automatic buret to reduce the pH of the solution by 0.1. After the system was equilibrated, the spectral scan was performed once after 20 min. This protocol was repeated until the specified endpoint of the pH value was reached. All data was recorded with the internal Visual Basic program, HypSpec2014 program was utilised for the data analysis.
Similarly, 45 ml KCl (0.1 M) solution was added to the cuvette (50 mm) and the pH value was acidified to 2.1. Then 30 μM DMSO solution of the testing compound and 60 μL acidic solution of FeCl3 (15 mM) were added separately, and the mixture was vigorously stirred. After the absorbance value is stabilised, a certain amount of KOH solution (0.1 M) was added by the automatic buret to increase the pH of the solution by 0.1. After the system was equilibrated, the spectral scan was performed once after 5 min. This protocol was repeated until the specified endpoint of the pH value was reached. All data were recorded with the internal Visual Basic program, HypSpec2014 program was utilised for the data analysis[5]^,[21]^,[22].

[6] = as above; format: physicochemical; settings: measured in 0.1 M KCl solution
[7] = parameters: method as in ref 17 = [17]; 17 Li Z-S , Qiao R-P , Yang Z-J , et al. One-step synthesis of novel tricyclic isomeric azidonucleosides . Tetrahedron Asymmetry 2006; 17 : 1056 – 61 .; settings: cited from earlier work; remark: listed apart in the source

Cc1c(O)c(=O)ccn1C [Deferiprone]
Logβ1 [1]: 15.03^c
Logβ2 [1]: 27.42^c
Logβ3 [1]: 37.35^c
pKa2 [2]: 9.78^c
pKa1 [3]: 3.68
pFe3+ ([4]; DMSO:KCl (0.1 M) = 2:3 (V/V), calculated by HySS from pKa1, pKa2, logβ1-3): 17.4
pFe3+ ([4]; data measured in 0.1 M KCl solution): 20.1^b
Logβ1 ([5]; compound:iron 1.1:1): 14.83
Logβ2 ([5]; compound:iron 5:1): 25.7
Logβ3 ([5]; compound:iron 5:1): 33.6
Logβ2 [6]: 27.0^b
Logβ3 [6]: 36.4^b
pFe3+ [7]: 20.7^c
